According to patent US12043599B2, “Herbicidal compounds” (SYNGENTA PARTICIPATIONS AG, priority 2018, dated 2024):

Legend:
Type in all cases: in vivo
Settings in all cases: 250 g/h, evaluated after 13 days
Setaria faberi (SETFA) [1] = experiment: Pre-emergence herbicidal glasshouse test, percentage damage
Protocol: (§1) Seeds of a variety of test species are sown in standard soil in pots (Lolium perenne (LOLPE), Setaria faberi (SETFA), Alopecurus myosuroides (ALOMY), Echinochloa crus-galli (ECHCG), Avena fatua (AVEFA)). After cultivation for one day (pre-emergence) or after 8 days cultivation (post-emergence) under controlled conditions in a glasshouse (at 24/16° C., day/night; 14 hours light; 65% humidity), the plants are sprayed with an aqueous spray solution derived from the formulation of the technical active ingredient in acetone/water (50:50) solution containing 0.5% Tween 20 (polyoxyethelyene sorbitan monolaurate, CAS RN 9005-64-5). Compounds are applied at […]. The test plants are then grown in a glasshouse under controlled conditions in a glasshouse (at 24/16° C., day/night; 14 hours light; 65% humidity) and watered twice daily. After 13 days for pre and post-emergence, the test is evaluated for the percentage damage caused to the plant. The biological activities are shown in the following table on a five point scale (5=80-100%; 4=60-79%; 3=40-59%; 2=20-39%; 1=0-19%).

Lolium perenne (LOLPE) [2] = experiment: as above
Protocol: as §1

Avena fatua (AVEFA) [3] = experiment: as above
Protocol: as §1

[4] = tested on: Echinochloa crus-galli (ECHCG); experiment: as above
Protocol: as §1

Setaria faberi (SETFA) [5] = experiment: Post-emergence herbicidal glasshouse test, percentage damage
Protocol: as §1
Using procedures outlines above, wheat and barley crop plants and a weed species (SETFA) are treated post-emergence with compound A11 of the present invention or comparator compound C1 (Compound A-38 from WO2014/096289) at the application rates indicated. The compounds were also applied to wheat in conjunction with the safener compound cloquintocet-mexyl (CQC) at 50 g/ha.

Lolium perenne (LOLPE) [6] = experiment: as above
Protocol: as §1

Avena fatua (AVEFA) [7] = experiment: as above
Protocol: as §1

[8] = tested on: Echinochloa crus-galli (ECHCG); experiment: as above
Protocol: as §1

Row | Structure (SMILES) | SETFA PRE percentage damage (five point scale) (Setaria faberi (SETFA) [1]) | LOLPE PRE percentage damage (five point scale) (Lolium perenne (LOLPE) [2]) | AVEFA PRE percentage damage (five point scale) (Avena fatua (AVEFA) [3]) | ECHCG PRE percentage damage (five point scale) [4] | SETFA POST percentage damage (five point scale) (Setaria faberi (SETFA) [5]) | LOLPE POST percentage damage (five point scale) (Lolium perenne (LOLPE) [6]) | AVEFA POST percentage damage (five point scale) (Avena fatua (AVEFA) [7]) | ECHCG POST percentage damage (five point scale) [8]
1 | CC#Cc1cc(C)c(C2C(=O)CC3(CCN(C(=O)c4ccnc(F)c4)CC3)CC2=O)c(C)c1 [Compound A125] | 5 (5=80-100%) | 5 (5=80-100%) | 5 (5=80-100%) | 5 (5=80-100%) | 5 (5=80-100%) | 5 (5=80-100%) | 5 (5=80-100%) | 5 (5=80-100%)
2 | CC#Cc1cc(C)c(C2C(=O)CC3(CCN(C(=O)c4nccnc4C)CC3)CC2=O)c(C)c1 [Compound A138] | 5 (5=80-100%) | 5 (5=80-100%) | 5 (5=80-100%) | 5 (5=80-100%) | 5 (5=80-100%) | 5 (5=80-100%) | 5 (5=80-100%) | 5 (5=80-100%)
3 | CC#Cc1cc(C)c(C2C(=O)CC3(CCN(C(=O)c4cccc(OC)n4)CC3)CC2=O)c(C)c1 [Compound A110] | 5 (5=80-100%) | 5 (5=80-100%) | 5 (5=80-100%) | 5 (5=80-100%) | 5 (5=80-100%) | 5 (5=80-100%) | 5 (5=80-100%) | 5 (5=80-100%)
4 | CC#Cc1cc(C)c(C2C(=O)CC3(CCN(C(=O)C4CCCO4)CC3)CC2=O)c(C)c1 (centres unmarked) [Compound A139] | 5 (5=80-100%) | 5 (5=80-100%) | 5 (5=80-100%) | 5 (5=80-100%) | 5 (5=80-100%) | 5 (5=80-100%) | 5 (5=80-100%) | 5 (5=80-100%)
5 | CC#Cc1cc(C)c(C2C(=O)CC3(CCN(C(=O)c4csnn4)CC3)CC2=O)c(C)c1 [Compound A135] | 5 (5=80-100%) | 5 (5=80-100%) | 5 (5=80-100%) | 5 (5=80-100%) | 5 (5=80-100%) | 5 (5=80-100%) | 5 (5=80-100%) | 5 (5=80-100%)
6 | CC#Cc1cc(C)c(C2C(=O)CC3(CCN(C(=O)CCOC)CC3)CC2=O)c(C)c1 [Compound A124] | 5 (5=80-100%) | 5 (5=80-100%) | 5 (5=80-100%) | 5 (5=80-100%) | 5 (5=80-100%) | 5 (5=80-100%) | 5 (5=80-100%) | 5 (5=80-100%)
7 | CC#Cc1cc(C)c(C2C(=O)CC3(CCN(C(=O)c4nccn4C)CC3)CC2=O)c(C)c1 [Compound A112] | 5 (5=80-100%) | 5 (5=80-100%) | 5 (5=80-100%) | 5 (5=80-100%) | 5 (5=80-100%) | 5 (5=80-100%) | 5 (5=80-100%) | 5 (5=80-100%)
8 | CC#Cc1cc(C)c(C2C(=O)CC3(CCN(C(=O)c4cnccc4C)CC3)CC2=O)c(C)c1 [Compound A115] | 5 (5=80-100%) | 5 (5=80-100%) | 3 (3=40-59%) | 5 (5=80-100%) | 5 (5=80-100%) | 5 (5=80-100%) | 5 (5=80-100%) | 5 (5=80-100%)
9 | CC#Cc1cc(C)c(C2C(=O)CC3(CCN(C(=O)c4ccc(OC)cn4)CC3)CC2=O)c(C)c1 [Compound A121] | 5 (5=80-100%) | 5 (5=80-100%) | 4 (4=60-79%) | 5 (5=80-100%) | 5 (5=80-100%) | 5 (5=80-100%) | 5 (5=80-100%) | 5 (5=80-100%)
10 | CC#Cc1cc(C)c(C2C(=O)CC3(CCN(C(=O)c4ccc(OC)nn4)CC3)CC2=O)c(C)c1 [Compound A132] | 5 (5=80-100%) | 5 (5=80-100%) | 5 (5=80-100%) | 5 (5=80-100%) | 5 (5=80-100%) | 5 (5=80-100%) | 5 (5=80-100%) | 5 (5=80-100%)
11 | CC#Cc1cc(C)c(C2=C(OC(=O)OC)CC3(CCN(C(=O)Cc4ccccn4)CC3)CC2=O)c(C)c1 [Compound P47] | 5 (5=80-100%) | 5 (5=80-100%) | 5 (5=80-100%) | 5 (5=80-100%) | 5 (5=80-100%) | 5 (5=80-100%) | 5 (5=80-100%) | 5 (5=80-100%)
12 | CC#Cc1cc(C)c(C2C(=O)CC3(CCN(C(=O)c4cc(OC)ccn4)CC3)CC2=O)c(C)c1 [Compound A120] | 5 (5=80-100%) | 5 (5=80-100%) | 4 (4=60-79%) | 5 (5=80-100%) | 5 (5=80-100%) | 5 (5=80-100%) | 5 (5=80-100%) | 5 (5=80-100%)
13 | CC#Cc1cc(C)c(C2C(=O)CC3(CCN(C(=O)c4cnn(C)n4)CC3)CC2=O)c(C)c1 [Compound A126] | 5 (5=80-100%) | 5 (5=80-100%) | 5 (5=80-100%) | 5 (5=80-100%) | 5 (5=80-100%) | 5 (5=80-100%) | 5 (5=80-100%) | 5 (5=80-100%)
